Measured values published in US7838580B2, “Salts of alkyl esters of carboxyethyl(alkyl)phosphinic acid” (Clariant Finance (BVI) Limited, priority 2006, dated 2010).

Assay: Differential thermal analysis (decomposition temperature)
Assay type: physicochemical
Settings: ° C. for 2% weight loss
Experimental: The decomposition temperature and the average particle diameter are determined on a flame retardant of the prior art—Exolit® OP 1230.

Structure (SMILES)	DTA (decomposition in differential thermal analysis) [°C]
COC(=O)CCP(C)(=O)[O-].COC(=O)CCP(C)(=O)[O-].COC(=O)CCP(C)(=O)[O-].[Al+3] [Example 10, H3C—P(═O)(OAl1/3)—CH2—CH2—CO2CH3]	330
COC(=O)CCP(C)(=O)[O-].COC(=O)CCP(C)(=O)[O-].[Mg+2] [Example 11, H3C—P(═O)(OMg1/2)—CH2—CH2—CO2CH3]	282
COC(=O)CCP(C)(=O)[O-].COC(=O)CCP(C)(=O)[O-].[Zn+2] [Example 12, H3C—P(═O)(OZn1/2)—CH2—CH2—CO2CH3]	334
COC(=O)CCP(C)(=O)[O-].COC(=O)CCP(C)(=O)[O-].[Ca+2] [Example 13, H3C—P(═O)(OCa1/2)—CH2—CH2—CO2CH3]	317
CCCCCCCCOC(=O)CCP(C)(=O)[O-].CCCCCCCCOC(=O)CCP(C)(=O)[O-].[Zn+2] [Example 14, H3C—P(═O)(OZn1/2)—CH2—CH2—CO2C8H17]	323
